Data as given in PubChem BioAssay (NCI).
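Protocol summary: plate cells (96-well), add compound at 5 concentrations, incubate 48 h, interpolate endpoints linearly. TGI is the concentration that stops growth completely.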

Columns and labels:
Experiment in all cases: NCI tumour cell line growth inhibition, 48 h
786-0 renal = test system: 786-0 renal
A498 renal = test system: A498 renal
A549 NSCLC = test system: A549 NSCLC
ACHN renal = test system: ACHN renal
BT-549 breast = test system: BT-549 breast
CAKI-1 renal = test system: CAKI-1 renal
CCRF-CEM leukemia = test system: CCRF-CEM leukemia
COLO 205 colon = test system: COLO 205 colon
DU-145 prostate = test system: DU-145 prostate
EKVX NSCLC = test system: EKVX NSCLC
HCC-2998 colon = test system: HCC-2998 colon
HCT-116 colon = test system: HCT-116 colon
HCT-15 colon = test system: HCT-15 colon
HL-60(TB) leukemia = test system: HL-60(TB) leukemia
HOP-62 NSCLC = test system: HOP-62 NSCLC
HOP-92 NSCLC = test system: HOP-92 NSCLC
HS 578T breast = test system: HS 578T breast
HT29 colon = test system: HT29 colon
IGROV1 ovarian = test system: IGROV1 ovarian
K-562 leukemia = test system: K-562 leukemia
KM12 colon = test system: KM12 colon
LOX IMVI melanoma = test system: LOX IMVI melanoma
M14 melanoma = test system: M14 melanoma
MALME-3M melanoma = test system: MALME-3M melanoma
MCF7 breast = test system: MCF7 breast
MDA-MB-231 breast = test system: MDA-MB-231 breast
MDA-MB-435 = test system: MDA-MB-435
MDA-N = test system: MDA-N
MOLT-4 leukemia = test system: MOLT-4 leukemia
NCI-H226 lung = test system: NCI-H226 lung
NCI-H23 lung = test system: NCI-H23 lung
NCI-H460 lung = test system: NCI-H460 lung
NCI-H522 lung = test system: NCI-H522 lung
NCI/ADR-RES ovarian = test system: NCI/ADR-RES ovarian
OVCAR-3 ovarian = test system: OVCAR-3 ovarian
OVCAR-4 ovarian = test system: OVCAR-4 ovarian
OVCAR-5 ovarian = test system: OVCAR-5 ovarian
OVCAR-8 ovarian = test system: OVCAR-8 ovarian
PC-3 prostate = test system: PC-3 prostate
RPMI-8226 leukemia = test system: RPMI-8226 leukemia
RXF 393 renal = test system: RXF 393 renal
SF-268 CNS = test system: SF-268 CNS
SF-295 CNS = test system: SF-295 CNS
SK-MEL-2 melanoma = test system: SK-MEL-2 melanoma
SK-MEL-28 melanoma = test system: SK-MEL-28 melanoma
SK-MEL-5 melanoma = test system: SK-MEL-5 melanoma
SK-OV-3 ovarian = test system: SK-OV-3 ovarian
SN12C renal = test system: SN12C renal
SNB-19 CNS = test system: SNB-19 CNS
SNB-75 CNS = test system: SNB-75 CNS
SR leukemia = test system: SR leukemia
SW-620 colon = test system: SW-620 colon
T-47D breast = test system: T-47D breast
TK-10 renal = test system: TK-10 renal
U251 CNS = test system: U251 CNS
UACC-257 melanoma = test system: UACC-257 melanoma
UACC-62 melanoma = test system: UACC-62 melanoma
UO-31 renal = test system: UO-31 renal
SF-539 CNS = test system: SF-539 CNS
DLD-1 colon = test system: DLD-1 colon
DMS 114 small cell lung = test system: DMS 114 small cell lung
DMS 273 small cell lung = test system: DMS 273 small cell lung
KM20L2 colon = test system: KM20L2 colon
LXFL 529 NSCLC = test system: LXFL 529 NSCLC
M19-MEL melanoma = test system: M19-MEL melanoma
SNB-78 CNS = test system: SNB-78 CNS
XF 498 CNS = test system: XF 498 CNS

Measured: TGI

C[N+]1(C(CO)Cc2c[nH]c3ccccc23)Cc2ccccc2C1 (stereo not drawn)
81 µM: MALME-3M melanoma
> 100 µM: 786-0 renal | A498 renal | A549 NSCLC | ACHN renal | BT-549 breast | CAKI-1 renal | CCRF-CEM leukemia | COLO 205 colon | DU-145 prostate | EKVX NSCLC | HCC-2998 colon | HCT-116 colon | HCT-15 colon | HL-60(TB) leukemia | HOP-62 NSCLC | HOP-92 NSCLC | HS 578T breast | HT29 colon | IGROV1 ovarian | K-562 leukemia | KM12 colon | LOX IMVI melanoma | M14 melanoma | MCF7 breast | MDA-MB-231 breast | MDA-MB-435 | MDA-N | MOLT-4 leukemia | NCI-H226 lung | NCI-H23 lung | NCI-H460 lung | NCI-H522 lung | NCI/ADR-RES ovarian | OVCAR-3 ovarian | OVCAR-4 ovarian | OVCAR-5 ovarian | OVCAR-8 ovarian | PC-3 prostate | RPMI-8226 leukemia | RXF 393 renal | SF-268 CNS | SF-295 CNS | SK-MEL-2 melanoma | SK-MEL-28 melanoma | SK-MEL-5 melanoma | SK-OV-3 ovarian | SN12C renal | SNB-19 CNS | SNB-75 CNS | SR leukemia | SW-620 colon | T-47D breast | TK-10 renal | U251 CNS | UACC-257 melanoma | UACC-62 melanoma | UO-31 renal

Fc1cc2nc3n(c2cc1F)C(c1c(F)cccc1F)SC3 (stereo not drawn)
51.2 µM: HL-60(TB) leukemia
81.5 µM: M14 melanoma
34.6 µM: SK-MEL-5 melanoma
80.6 µM: 786-0 renal
98.3 µM: A498 renal
> 100 µM: A549 NSCLC | ACHN renal | BT-549 breast | CAKI-1 renal | COLO 205 colon | DU-145 prostate | HCC-2998 colon | HCT-15 colon | HOP-62 NSCLC | HOP-92 NSCLC | HS 578T breast | HT29 colon | IGROV1 ovarian | KM12 colon | LOX IMVI melanoma | MALME-3M melanoma | MCF7 breast | MDA-MB-231 breast | MDA-MB-435 | MDA-N | MOLT-4 leukemia | NCI-H226 lung | NCI-H23 lung | NCI-H460 lung | NCI-H522 lung | NCI/ADR-RES ovarian | OVCAR-3 ovarian | OVCAR-4 ovarian | OVCAR-5 ovarian | OVCAR-8 ovarian | PC-3 prostate | RPMI-8226 leukemia | RXF 393 renal | SF-268 CNS | SF-295 CNS | SF-539 CNS | SK-MEL-2 melanoma | SK-MEL-28 melanoma | SK-OV-3 ovarian | SN12C renal | SNB-19 CNS | SNB-75 CNS | SR leukemia | SW-620 colon | T-47D breast | TK-10 renal | U251 CNS | UACC-257 melanoma | UACC-62 melanoma | UO-31 renal
54.1 µM: HCT-116 colon

O=S(=O)(c1ccccc1)C1CC(c2nc3ccccc3[nH]2)=NO1 (stereo not drawn)
> 100 µM: A498 renal | A549 NSCLC | ACHN renal | BT-549 breast | CAKI-1 renal | COLO 205 colon | DU-145 prostate | EKVX NSCLC | HCC-2998 colon | HCT-116 colon | HCT-15 colon | HOP-62 NSCLC | HOP-92 NSCLC | HS 578T breast | HT29 colon | IGROV1 ovarian | K-562 leukemia | LOX IMVI melanoma | MALME-3M melanoma | MCF7 breast | MDA-MB-231 breast | MDA-MB-435 | MDA-N | MOLT-4 leukemia | NCI-H226 lung | NCI-H23 lung | NCI-H460 lung | NCI-H522 lung | NCI/ADR-RES ovarian | OVCAR-3 ovarian | OVCAR-4 ovarian | OVCAR-5 ovarian | OVCAR-8 ovarian | PC-3 prostate | RPMI-8226 leukemia | RXF 393 renal | SF-268 CNS | SF-295 CNS | SF-539 CNS | SK-MEL-2 melanoma | SK-MEL-28 melanoma | SK-MEL-5 melanoma | SK-OV-3 ovarian | SN12C renal | SNB-19 CNS | SNB-75 CNS | SR leukemia | SW-620 colon | T-47D breast | TK-10 renal | U251 CNS | UACC-257 melanoma | UACC-62 melanoma | UO-31 renal
82.6 µM: CCRF-CEM leukemia

O=C1C(Cl)C(c2ccccc2Cl)N1n1cnc2ccccc2c1=O (stereo not drawn)
68.4 µM: SK-MEL-2 melanoma
59.4 µM: SNB-75 CNS
72.5 µM: SK-OV-3 ovarian
91.4 µM: NCI-H226 lung
> 100 µM: 786-0 renal | A549 NSCLC | ACHN renal | CAKI-1 renal | CCRF-CEM leukemia | COLO 205 colon | DLD-1 colon | DMS 114 small cell lung | DMS 273 small cell lung | EKVX NSCLC | HCC-2998 colon | HCT-116 colon | HCT-15 colon | HOP-62 NSCLC | HT29 colon | IGROV1 ovarian | K-562 leukemia | KM12 colon | KM20L2 colon | LOX IMVI melanoma | LXFL 529 NSCLC | M14 melanoma | M19-MEL melanoma | MALME-3M melanoma | MOLT-4 leukemia | NCI-H23 lung | NCI-H460 lung | OVCAR-3 ovarian | OVCAR-4 ovarian | OVCAR-5 ovarian | OVCAR-8 ovarian | RPMI-8226 leukemia | SF-268 CNS | SF-295 CNS | SK-MEL-28 melanoma | SK-MEL-5 melanoma | SN12C renal | SNB-19 CNS | SNB-78 CNS | SR leukemia | SW-620 colon | TK-10 renal | U251 CNS | UACC-257 melanoma | UACC-62 melanoma | XF 498 CNS
57.4 µM: HL-60(TB) leukemia
73.2 µM: UO-31 renal
85.2 µM: NCI-H522 lung
67.3 µM: RXF 393 renal
